Measured values taken from article PMC6311682, “Design, Synthesis, and Biological Evaluation of 2-Nitroimidazopyrazin-one/-es with Antitubercular and Antiparasitic Activity” (Journal of Medicinal Chemistry, 2018).
≈ marks a conversion by molar mass, not a printed value. Where “and” joins values, the source holds several entries; their conditions need not be identical. Equal values may be shown once. Read-outs that look alike come from different tables or passages of the source.

Experiments:
[1] = system: M. tuberculosis (H37Rv); assay: M. tuberculosis H37Rv resazurin reduction microplate MIC assay, normoxic conditions; format: cell-based; conditions: Mycobacterium tuberculosis, normoxia, read-out: antibacterial MIC M. tuberculosis normoxia
[2] = system: M. tuberculosis (H37Rv); assay: M. tuberculosis H37Rv resazurin reduction microplate MIC assay, hypoxic conditions (0.1% oxygen); format: cell-based, Mycobacterium tuberculosis; conditions: for MIC: Mycobacterium tuberculosis, H37Rv, hypoxia (0.1% oxygen), read-out: antibacterial MIC M. tuberculosis hypoxia
[3] = system: HEK293 cells; design: method as in Jarrad et al. 2; conditions: ATCC CRL-1573; ref Jarrad et al. 2; read-out: cytotoxicity CC50 HEK 293; cited from earlier work
[4] = system: HepG2 cells; design: method as in Jarrad et al. 2; conditions: ATCC HB-8065; ref Jarrad et al. 2; read-out: cytotoxicity CC50 HepG2; cited from earlier work
[5] = system: E. histolytica (HM1:IMSS); assay: ATP-bioluminescence cell growth and survival assay, E. histolytica trophozoites; format: cell-based; conditions: Entamoeba histolytica
[6] = system: L. donovani MHOM/IN/80/DD8 (ATCC50212); assay: L. donovani DD8 intracellular (THP-1) amastigote assay; format: cell-based; conditions: Leishmania donovani
[7] = Broth microdilution MIC assay, ESKAPE pathogens; format: cell-based; conditions: S. aureus, E. coli, K. pneumoniae, A. baumannii, P. aeruginosa; read-out: antibacterial MIC ESKAPE
[8] = system: ESKAPE pathogens S. aureus (ATCC 43300), E. coli (ATCC 25922), K. pneumoniae (ATCC 700603), A. baumannii (ATCC 19606), P. aeruginosa (ATCC 27853); assay: Broth microdilution MIC assay, ESKAPE pathogens; format: cell-based
[9] = Kinetic solubility determination by LC-UV; conditions: room temperature, 1% DMSO
[10] = system: G. lamblia (WB line); assay: ATP-bioluminescence cell growth and survival assay, G. lamblia trophozoites; format: cell-based; conditions: Giardia duodenalis
[11] = system: C. difficile (630, ATCC BAA-1382); assay: Broth microdilution MIC assay, C. difficile; format: cell-based, Clostridium difficile; conditions: 630 ATCC BAA-1382, median MIC; for MIC: Clostridioides difficile, ATCCBAA1382, read-out: antibacterial MIC C. difficile
[12] = system: T. b. brucei (strain 427, BS427); assay: 384-well resazurin viability assay, T. b. brucei bloodstream parasites; format: cell-based; conditions: Trypanosoma brucei, BS427, n = 2
[13] = system: C. albicans (ATCC 90028) and C. neoformans (H99, ATCC 208821); assay: Broth microdilution MIC assay, fungi; format: cell-based; conditions: for MIC: Candida albicans, read-out: antifungal MIC
[14] = Mammalian cytotoxicity assay (resazurin), HepG2; conditions: human, HepG2 cells
[15] = Mammalian cytotoxicity assay (resazurin), HEK293; conditions: human, HEK293 cells
[16] = read-out: antiparasitic IC50 E. histolytica
[17] = read-out: antiparasitic pIC50 ± SE E. histolytica (converted)
[18] = read-out: antiparasitic IC50 L. donovani
[19] = read-out: antiparasitic pIC50 ± SE L. donovani (converted)
[20] = PBS, pH 7.4, Solubility µM (PBS), PBS pH 7.4, 24 h
[21] = water, Solubility µM (H2O), 24 h
[22] = read-out: antiparasitic IC50 G. lamblia
[23] = read-out: antiparasitic IC50 T. b. brucei

NC(=O)c1ncc([N+](=O)[O-])[nH]1 [16a]
MIC [1]: > 32 µg/mL | MIC [2]: > 32 µg/mL | CC50 [3]: > 100 µM | CC50 [4]: > 100 µM

O=C(NCc1ccc(OC(F)(F)F)cc1)c1ncc([N+](=O)[O-])[nH]1 [16c]
M. tuberculosis hypoxia % I ([2]; at 32 μg/mL): 75% and 60–75% | CC50 [3]: 93 µM | CC50 [4]: 104 µM

Cc1cccc(Cn2ccn3cc([N+](=O)[O-])nc3c2=O)c1 [17g, 7-(3-Methylbenzyl)-2-nitroimidazo[1,2-a]pyrazin-8(7H)-one]
M. tuberculosis hypoxia % I ([2]; @ 0.125–8 μg/mL): 70–90% I @ 0.125–8 μg/mL | IC50 [5, 16]: > 50 µM | IC50 [5, 17]: > 50.1 µM | IC50 [6, 18]: > 20 µM | IC50 [6, 19]: > 20 µM | MIC [7]: > 32 µg/mL | antibacterial MIC ESKAPE [8]: >32 µg/mL | solubility at 24 h [9, 20]: < 5 µM | solubility at 24 h [9, 21]: < 5 µM

O=c1c2nc([N+](=O)[O-])cn2ccn1Cc1cccc(C(F)(F)F)c1 [17h, 2-Nitro-7-(3-(trifluoromethyl)benzyl)imidazo[1,2-a]pyrazin-8(7H)-one]
M. tuberculosis hypoxia % I ([2]; @ 0.06–16 μg/mL): 70–90% I @ 0.06–16 μg/mL | IC50 [5, 16]: > 50 µM | IC50 [5, 17]: > 50.1 µM | IC50 [6, 18]: > 40 µM | IC50 [6, 19]: > 39.8 µM | MIC [7]: > 32 µg/mL | antibacterial MIC ESKAPE [8]: >32 µg/mL

O=c1c2nc([N+](=O)[O-])cn2ccn1CCc1ccc(OC(F)(F)F)cc1 [17m, 2-Nitro-7-(4-(trifluoromethoxy)phenethyl)imidazo[1,2-a]pyrazin-8(7H)-one]
MIC [1]: 8 µg/mL (≈ 21.7 µM) | IC50 [10, 22]: 1.6 to 3.2 µM | IC50 [5, 16]: > 50 µM | IC50 [5, 17]: > 50.1 µM | IC50 [6, 18]: > 80 µM | IC50 [6, 19]: > 79.4 µM | MIC [11]: 64 µg/mL (≈ 174 µM) | MIC [7]: > 32 µg/mL | antibacterial MIC ESKAPE [8]: >32 µg/mL | solubility at 24 h [9, 20]: < 5 µM | solubility at 24 h [9, 21]: < 5 µM

Cc1ccc(CCn2ccn3cc([N+](=O)[O-])nc3c2=O)cc1 [17n, 7-(4-Methylphenethyl)-2-nitroimidazo[1,2-a]pyrazin-8(7H)-one]
MIC [1]: 4 µg/mL (≈ 13.4 µM) | IC50 [10, 22]: 1.6 to 3.2 µM | IC50 [5, 16]: > 50 µM | IC50 [5, 17]: > 50.1 µM | IC50 [6, 18]: > 80 µM | IC50 [6, 19]: > 79.4 µM | antibacterial MIC C. difficile [11]: >64 µg/mL | MIC [11]: > 64 µg/mL | MIC [7]: > 32 µg/mL | antibacterial MIC ESKAPE [8]: >32 µg/mL | solubility at 24 h [9, 20]: < 5 µM | solubility at 24 h [9, 21]: < 5 µM

O=c1c2nccn2ccn1Cc1ccccc1 [20b, 7-Benzylimidazo[1,2-a]pyrazin-8(7H)-one]
MIC [1]: > 32 µg/mL | MIC [2]: > 32 µg/mL | IC50 [10, 22]: > 25 µM | IC50 ([10]; read-out: antiparasitic pIC50 ± SE G. lamblia (converted)): > 25.1 µM | IC50 [5, 16]: > 25 µM | IC50 [5, 17]: > 25.1 µM | IC50 [12, 23]: > 40 µM | IC50 ([12]; read-out: antiparasitic pIC50 ± SE T. b. brucei (converted)): > 39.8 µM | IC50 [6, 18]: > 80 µM | IC50 [6, 19]: > 79.4 µM | MIC [11]: > 64 µg/mL | MIC [7]: > 32 µg/mL | MIC [13]: > 32 µg/mL | CC50 at 24 h [14]: > 100 µM | CC50 at 24 h [15]: > 100 µM

CC(=O)OCCn1c(-c2ccccc2)cn2cc([N+](=O)[O-])nc2c1=O [24b, 2-(2-Nitro-8-oxo-6-phenylimidazo[1,2-a]pyrazin-7(8H)-yl)ethyl Acetate]
IC50 [12, 23]: < 1 µM | IC50 [6, 18]: > 80 µM | IC50 [6, 19]: > 79.4 µM | MIC [11]: 64 µg/mL | MIC [7]: > 32 µg/mL | antibacterial MIC ESKAPE [8]: >32 µg/mL | antifungal MIC [13]: >32 µg/mL | MIC [13]: > 32 µg/mL | solubility at 24 h [9, 20]: 187 ± 17.4 µM | solubility at 24 h [9, 21]: 164 ± 7.57 µM | CC50 at 24 h [14]: > 100 µM | CC50 at 24 h [15]: > 100 µM

CC(=O)OCCn1c(C)cn2cc([N+](=O)[O-])nc2c1=O [25b, 2-(6-Methyl-2-nitro-8-oxoimidazo[1,2-a]pyrazin-7(8H)-yl)ethyl Acetate]
IC50 [12, 23]: < 1 µM | IC50 [6, 18]: > 80 µM | IC50 [6, 19]: > 79.4 µM | antibacterial MIC C. difficile [11]: >64 µg/mL | MIC [11]: > 64 µg/mL | MIC [7]: > 32 µg/mL | antibacterial MIC ESKAPE [8]: >32 µg/mL | antifungal MIC [13]: >32 µg/mL | MIC [13]: > 32 µg/mL | solubility at 24 h [9, 20]: > 200 µM | solubility at 24 h [9, 21]: > 200 µM | CC50 at 24 h [14]: > 100 µM | CC50 at 24 h [15]: > 100 µM

O=C(NO)c1nc([N+](=O)[O-])cn1Cc1ccc(OC(F)(F)F)cc1 [28j]
M. tuberculosis hypoxia % I ([2]; at 32 μg/mL): 60% and 60–75% | CC50 [3]: 36 µM | CC50 [4]: > 100 µM
